pEC50: −log10 of the molar value.
Key:
[1] = Colonogenic assay for long term cell killing; format: cell-based; conditions: ZN-6 at 10 nM; exposure up to 60 minutes, washout, crystal violet staining after 14-day incubation
Procedure: Cell growth inhibition for 3 days is an effect for a short term treatment. A colonogenic assay was used for the long term cell killing effect. One thousand cells were seeded in each well in 6-well plates. On the second day the cells were exposed with the dilutions of the compound for up to 60 minutes. After that the compound was washed away and the cells were refed with fresh medium without the compound. The colonies were visualized by crystal violet staining after 14-day incubation.

mutant p53-R175H protein = biological target: T1, mutant p53-R175H protein (Homo sapiens, UniProt P04637, R175H); assay: Mutant p53 refolding assay (immunofluorescent staining with PAB1620 and PAB240); format: cell-based; conditions: p53-R175H cells (e.g. TOV 112D), treated 6 hours; data not shown
T1 construct: endogenous in cells; host or cells: TOV 112D (p53-R175H cells)
Procedure: An immunofluorescent staining using p53 conformation specific antibodies was used to determine if a test compound could induce the mutant p53 protein refolding to a wildtype conformation. The p53-R175H cells (e.g. TOV 112D) cultured in DMEM+10% FBS were treated with a test compound for 6 hours, then fixed and stained with the antibodies PAB1620 (recognizing WT conformation) and PAB240 (recognizing misfolded/unfolded conformation) respectively.

[2] = tested on: human tumor cell lines with different p53 status; assay: Cell growth inhibition assay (Calcein AM); format: cell-based; conditions: for pEC50: cell growth, Calcein AM, incubation for 3 days, cell line not stated; for Fold (ZN-1/compound) / Fold (compound/ZN-1): ratio of EC50s
Procedure: Cell growth inhibition assay using human tumor cell lines with different p53 status (wildtype, null, p53-R175H or other zinc binding deficient mutants) were employed to determine if a test compound functions as a zinc metallochaperone to restore wildtype p53 functions. The cell growth inhibition assay was performed by Calcein AM assay (Trevigen). Five thousand cells per well were cultured in 96-well plate to reach the 50% confluence on the second day when treated with serial dilutions of the compounds. Growth was measured by Calcein AM assay (Trevigen) and Victor Plate reader instrument (PerkinElmer) after incubation for 3 days.

[3] = Solubility of zinc complexes; format: physicochemical
[4] = tested on: p53 target genes PUMA and GDF15 in p53-R175H cells; assay: Mutant p53 transcriptional reactivation assay by qRT-PCR of p53 target genes; format: cell-based
Procedure: p53 is a transcription factor. The reactivation of mutant p53 can be detected by regulation of the p53 target genes using quantitative reverse transcription PCR (qRT-PCR). The p53-R175H cells were treated with the compound for 6 hours and 24 hours followed by qRT-PCR to analyze the gene expression regulation. The two p53 target genes in this assay were PUMA and GDF15. For ZN-6, the expression levels were induced for 18-fold and 53-fold respectively (in parental cells). To double check the p53 dependence of the effect, the same assay applied to the p53 knockout cell line (KO, done by CRISPR-cas9 technology) and the p53 transient knockdown cells (KD, using siRNA knockdown). The PUMA induction was only 2× and 5× and GDF15 induction was only 1× and 5× in KO and KD cells, respectively (See FIG. 1).

[5] = p53 knockout cell line (KO, CRISPR-cas9)
[6] = p53 transient knockdown cells (KD, siRNA)
[7] = parental p53-R175H cells, 6 hours and 24 hours treatment

Compound: C/C(=N\NC(=S)N1CCC1)c1ccccn1 [ZMC1, reference compound]
- Earliest exposure time that showed effect on colony formation [1]: 15 min
- Refolding of mutant p53 to wildtype conformation (mutant p53-R175H protein): change the mutant p53-R175H protein from mutant conformation to WT conformation

Compound: C/C(=N\NC(=S)N(C)C)c1ncccc1CN1CCOCC1.C/C(=N\NC(=S)N(C)C)c1ncccc1CN1CCOCC1.[Zn] [ZN-7, Zn[(E)-N,N-dimethyl-2-(1-(3-(morpholinomethyl)pyridin-2-yl)ethylidene)hydrazine-1-carbothioamide]2]
- pEC50 [2]: 8.08
- Fold (ZN-1/compound) [2]: 0.3
- Fold (compound/ZN-1) [2]: 3.1
- Solubility in DMSO [3]: >5000 µg/mL
- Solubility in EtOH [3]: 1000 to 2000 µg/mL

Compound: COCCOCc1cccnc1/C(C)=N/NC(=S)N(C)C.COCCOCc1cccnc1/C(C)=N/NC(=S)N(C)C.[Zn] [ZN-6, Zn[(E)-2-(1-(3-((2-methoxyethoxy)methyl)pyridin-2-yl)ethylidene)-N,N-dimethylhydrazine-1-carbothioamide]2]
- pEC50 [2]: 8.27
- Fold (ZN-1/compound) [2]: 0.5
- Fold (compound/ZN-1) [2]: 2.0
- GDF15 induction [4, 5]: 1 ×
- PUMA induction [4, 5]: 2 ×
- GDF15 induction [4, 6]: 5 ×
- PUMA induction [4, 6]: 5 ×
- GDF15 expression induction [4, 7]: 53 fold
- PUMA expression induction [4, 7]: 18 fold
- Solubility in 5% EtOH, 4% Tween80, 4% Kolliphor, 87% water ([3]; 5% EtOH, 4% Tween80, 4% Kolliphor, 87% water): 1000 µg/mL
- Solubility in 10% EtOH, 10% captisol, 80% water ([3]; 10% EtOH, 10% captisol, 80% water): 1000 µg/mL
- Solubility in 50% EtOH 50% H2O ([3]; 50% EtOH, 50% H2O): >5000 µg/mL
- Solubility in DMSO [3]: >10000 µg/mL
- Solubility in EtOH [3]: >10000 µg/mL
- Earliest exposure time that showed effect on colony formation [1]: 15 min
- Refolding of mutant p53 to wildtype conformation (mutant p53-R175H protein): change the mutant p53-R175H protein from mutant conformation to WT conformation

Compound: COCCOCc1ccnc(/C(C)=N/NC(=S)N(C)C)c1.COCCOCc1ccnc(/C(C)=N/NC(=S)N(C)C)c1.[Zn] [ZN-12, Zn[(E)-2-(1-(4-((2-methoxyethoxy)methyl)pyridin-2-yl)ethylidene)-N,N-dimethylhydrazine-1-carbothioamide]2]
- pEC50 [2]: 8.60
- Fold (ZN-1/compound) [2]: 1.1
- Fold (compound/ZN-1) [2]: 0.9

— patent US12280065B2, “Pharmaceutical compounds and therapeutic methods” (RUTGERS, THE STATE UNIVERSITY OF NEW JERSEY, priority 2019, dated 2025)
